Article PMC9827845, “Active Pharmaceutical Ingredient Uptake by Zebrafish (Danio rerio) Oct2 (slc22a2) Transporter Expressed in Xenopus laevis Oocytes” (Environmental Toxicology and Chemistry, 2022)

Key:
Oct2 (slc22a2) [1] = molecular target: T1, Oct2 (slc22a2) (Danio rerio, UniProt Q7T2C0); assay: radiolabelled uptake in Xenopus oocytes expressing zebrafish oct2 versus sham; format: cell-based
T1 construct: complete Danio rerio slc22a2 cDNA clone (zgc:64076; IRBOp991A024D; oct2)
T1 sequence (Q7T2C0 1-562): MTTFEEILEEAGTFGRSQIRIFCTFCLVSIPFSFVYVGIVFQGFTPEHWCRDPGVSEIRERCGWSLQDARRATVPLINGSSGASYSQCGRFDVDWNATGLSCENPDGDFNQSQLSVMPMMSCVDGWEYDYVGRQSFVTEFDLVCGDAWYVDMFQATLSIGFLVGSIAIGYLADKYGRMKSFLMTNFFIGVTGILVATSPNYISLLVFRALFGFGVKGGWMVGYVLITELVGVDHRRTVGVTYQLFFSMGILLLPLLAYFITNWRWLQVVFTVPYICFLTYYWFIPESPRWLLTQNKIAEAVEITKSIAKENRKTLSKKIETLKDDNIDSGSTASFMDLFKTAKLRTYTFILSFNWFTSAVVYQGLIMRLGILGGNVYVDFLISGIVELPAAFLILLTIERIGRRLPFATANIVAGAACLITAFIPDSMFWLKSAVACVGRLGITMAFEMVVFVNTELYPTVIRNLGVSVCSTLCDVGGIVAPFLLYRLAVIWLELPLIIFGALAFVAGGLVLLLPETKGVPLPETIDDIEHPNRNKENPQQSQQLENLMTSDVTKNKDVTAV

Oct2 (slc22a2) [2] = molecular target: T1, Oct2 (slc22a2); assay: inhibition of […] TEA uptake at […] in Xenopus oocytes expressing zebrafish oct2; format: cell-based
[3] = substrate: CC(C)NCC(O)COc1cccc2ccccc12; assay: cells, lysate or membranes
[4] = substrate: CNC(=C[N+](=O)[O-])NCCSCc1ccc(CN(C)C)o1; assay: cells, lysate or membranes

Question: How did the “radiolabelled uptake in Xenopus oocytes expressing zebrafish oct2 versus sham” value (Oct2 (slc22a2) [1]) turn out when `CC[N+](CC)(CC)CC` [TEA, tetraethylammonium] was run?
Answer: Its value is “zebrafish oct2 when expressed in Xenopus oocytes can facilitate the transport of ranitidine, propranolol, and TEA”.

Question: Which “inhibition of 200 μM TEA uptake at 2 mM in Xenopus oocytes expressing zebrafish” value (Oct2 (slc22a2) [2]) does the source give for `NC12CC3CC(CC(C3)C1)C2` [amantadine] here?
Answer: The value was “Uptake of tetraethylammonium (TEA) was inhibited by propranolol, amantadine, and cimetidine”.

B1: Oct2 (slc22a2) (Danio rerio) (protein)
chain: MTTFEEILEEAGTFGRSQIRIFCTFCLVSIPFSFVYVGIVFQGFTPEHWCRDPGVSEIRERCGWSLQDARRATVPLINGSSGASYSQCGRFDVDWNATGLSCENPDGDFNQSQLSVMPMMSCVDGWEYDYVGRQSFVTEFDLVCGDAWYVDMFQATLSIGFLVGSIAIGYLADKYGRMKSFLMTNFFIGVTGILVATSPNYISLLVFRALFGFGVKGGWMVGYVLITELVGVDHRRTVGVTYQLFFSMGILLLPLLAYFITNWRWLQVVFTVPYICFLTYYWFIPESPRWLLTQNKIAEAVEITKSIAKENRKTLSKKIETLKDDNIDSGSTASFMDLFKTAKLRTYTFILSFNWFTSAVVYQGLIMRLGILGGNVYVDFLISGIVELPAAFLILLTIERIGRRLPFATANIVAGAACLITAFIPDSMFWLKSAVACVGRLGITMAFEMVVFVNTELYPTVIRNLGVSVCSTLCDVGGIVAPFLLYRLAVIWLELPLIIFGALAFVAGGLVLLLPETKGVPLPETIDDIEHPNRNKENPQQSQQLENLMTSDVTKNKDVTAV
Question: For B1, which Km [3] is on record?
Answer: The Km was 408.9 µM.

Question: What about the Km [4] of the same molecule?
Answer: Its Km is 246.1 µM.
